Values of other authors in patent US7747395B2, “Method of inhibitor design and identification using a 3-D structure of human peptide deformylase” (Sloan-Kettering Institute for Cancer Research, priority 2007, dated 2010).

Test system: drug resistant bacterial strains
Settings: cited from earlier work

## CC(C)(C)[C@H](NC(=O)[C@H](CC1CCCC1)CN(O)C=O)C(=O)N1CCN(Cc2ccc3c(c2)OCO3)CC1 [BB-83698]
  antibacterial activity in vitro: broad spectrum activity in vitro against drug resistant bacterial strains
